In US8986419B2, “Mixture for treating fertilizers” (SKW Stickstoffwerke Piesteritz GmbH, priority 2010, dated 2015):
Converted amounts (≈) assume the structure as drawn. “And” between values parts separate entries of the source, which are not always exact repeats. Equal values may be shown once.

Legend:
[1] = aqueous formulation; cited from earlier work
[2] = Laboratory test on the volatility of 3-methylpyrazole, storage in open crystallising dishes at room temperature; type: physicochemical; conditions: open crystallising dish diameter 5 cm
[3] = Simulated open storage test of treated urea granules, TZ/3-MP content determined analytically; type: physicochemical; conditions: storage period 6 weeks, 9 kg in open-topped vessels, ambient temperature and humidity; listed as pure 3-methylpyrazole sprayed on
Description: The urea granules enclosed in the cement mixer according to Example 8 were stored in a quantity of 9 kg to simulate storage in a pile in open-topped cylindrical vessels (height 30 cm, diameter 30 cm) at ambient temperature and humidity. After a storage period of 2, 4 and 6 weeks average samples were taken and the nitrification inhibitor TZ/3-MP content was determined analytically.
Enclosed urea granules according to Example 9 were stored in the same way in parallel, and average samples taken from these were investigated analytically.

Active substance losses in relation to the starting value, MP (%) [3] | SMILES | solubility [1] [mg/mL] | loss in % ([2]; storage time 1 day) [%] | loss in % ([2]; storage time 2 days) [%] | loss in % ([2]; storage time 3 days) [%] | loss in % ([2]; storage time 6 days) [%] | loss in % ([2]; storage time 12 days) [%]
 | N#CN=C(N)N [dicyandiamide, Dicyandiamide] | 32 (≈ 381 mM) |  |  |  |  | 
89 ^1% and 89% | Cc1cc[nH]n1 [Example 3-MP, 3-methylpyrazole] |  | 12 | 26 | 40 | 87 | 100
 | c1nc[nH]n1 [TZ, 1,2,4-triazole] |  | 0 | 0 | 1 | 2 | 2
